# Test: CHG and CHG-SLS mixture aging study, CHX degradation products by GC-MS
# Type: physicochemical
# Conditions: aqueous 20% CHG solution, 60° C. oven
# Procedure: Sample preparation for CHX degradation analysis by using GCMS analysis: Both aged solutions are taken from the 60° C.oven. They are diluted at 1:3.5 ratios with methanol. Both solutions are filtrated with a 0.20 um PTFE filter, respectively, then they are diluted again at a 1:10 dilution ratio with methanol and then transferred into a ROBO autosampler vials for GC-MS analysis. The gas chromatography system 6890N with 5972 MS detector plus Gerstel MPS-2 autosampler (Agilenet Technologies, Santa, Clara, CA, USA) is used for detection of CHX degradation products. Separation is accomplished using GC column of HP-5MS (30 m×0.25 mm×0.25 um, length×inside diameter×film thickness, Agilent Technologies). The 1 μL sample is injected with the splitless mode. The oven temperature is initially held at 80° C.for 1 min. Thereafter the temperature is raised at 6° C./min until 300° C.and held for 2.33 min. Total running time is 40 minutes. Helium is used as the carrier gas and delivered at a constant flow rate at 1 mL/min (the pressure at 9.38 psi and velocity at 37 cm/sec). The injector temperature is set at 250° C. and the interface temperature between GC oven and MS detector is250° C. […]
smiles,measurement,setting,value
"N=C(NCCCCCCNC(=N)NC(=N)Nc1ccc(Cl)cc1)NC(=N)Nc1ccc(Cl)cc1.O=C(O)[C@H](O)[C@@H](O)[C@H](O)[C@H](O)CO.O=C(O)[C@H](O)[C@@H](O)[C@H](O)[C@H](O)CO [CHG, chlorhexidine gluconate]",Peak integration for CHX degradation product at 3 weeks,3 weeks,523490
same,Peak integration for CHX degradation product at 6 weeks,6 weeks,7560037

# From patent publication US20240199538A1, “Novel Chlorhexidine Salts and Related Compositions and Methods” (Colgate-Palmolive Company, priority 2022, published 2024)
